Laboratory results reported in patent US12209087B2, “AKT1 modulators” (Alterome Therapeutics, Inc., priority 2022, dated 2025).
Read-outs that look alike come from different tables or passages of the source.

Molecular target: T1, full length AKT E17K (Homo sapiens, UniProt P31749, E17K)
T1 construct: host or cells: HEK-293 (ATCC CRL-1573)
Test: NanoBRET Target Engagement (TE) Assay
Format: cell-based
Conditions: read-out: AKT1 E17K IC50
Excerpt: The NanoBRET™ Target Engagement (TE) Intracellular Kinase Assays are based on the NanoBRET™ System (Promega Corporation), an energy transfer technique designed to measure molecular proximity in living cells. The NanoBRET™ TE Assays measure the apparent affinity of test compounds by competitive displacement of the NanoBRET™ tracer compound, which is a cell permeable molecule engineered to be reversibly bound to a NanoLuc® luciferase-kinase fusion expressed in cells. For compound screening, when a test compound binds to the selected kinase, the BRET signal is attenuated. […] All cells were evaluated for viability prior to transfection and optimization of the transfection was done prior to experimentation. […] Following transfection, cells were washed and resuspended in Opti-MEM. NanoBRET assays were performed in white, 384-well plates (Corning) at a density of […]. All example compounds were prepared as concentrated stock solutions in DMSO (Sigma-Aldrich). Compounds are dissolved in DMSO to make 10 mM stock solution. […] A Labcyte ECHO 550 compound dispenser was used to facilitate compound transfer directly to cells. Cells were equilibrated for 2 hr with energy transfer probes and example compound prior to BRET measurements. […] For target engagement analysis, the energy transfer probes were added to the cells at concentrations optimized for the target in question (AKT E17K). Following compound incubation, NanoBRET NanoGlo Substrate (Promega Cat #N157D) and Extracellular Nanoluc Inhibitor (Promega Cat #N235C) was added according to the manufacturer's recommended protocol, and luminescence was measured on Envision Reader (Perkin Elmer) Multimode Luminometer equipped with 450 nm BPfilter (donor) and 600 nm LPfilter (acceptor), using 0.5 s integration time. Milli-BRET units (mBU) are calculated by multiplying the raw BRET values by 1000. Apparent tracer affinity values (EC50) were determined using the sigmoidal dose-response (variable slope).
Competitive displacement data were then plotted and data were fit to determine the EC50 value for each example compound.

[1] = competitive displacement of tracer in cells
[2] = competitive tracer displacement in living cells

T1 sequence (P31749 whole entry E17K): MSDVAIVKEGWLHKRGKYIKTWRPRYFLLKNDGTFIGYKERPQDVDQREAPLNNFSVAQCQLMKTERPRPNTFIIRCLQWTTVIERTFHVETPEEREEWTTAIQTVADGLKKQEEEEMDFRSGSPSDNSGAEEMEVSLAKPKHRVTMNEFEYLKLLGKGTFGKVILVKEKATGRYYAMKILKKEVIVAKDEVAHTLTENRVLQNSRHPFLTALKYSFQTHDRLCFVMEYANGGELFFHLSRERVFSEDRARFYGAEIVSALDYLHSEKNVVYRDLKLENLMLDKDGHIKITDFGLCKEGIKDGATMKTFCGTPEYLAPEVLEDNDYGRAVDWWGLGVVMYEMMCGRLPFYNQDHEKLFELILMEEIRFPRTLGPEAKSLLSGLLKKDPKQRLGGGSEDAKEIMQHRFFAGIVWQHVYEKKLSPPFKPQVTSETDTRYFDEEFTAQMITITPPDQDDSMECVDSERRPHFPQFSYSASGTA

| Structure (SMILES) | IC50 [1] [nM] | IC50 [2] [nM] |
| --- | --- | --- |
| N#Cc1nccc(NC2CCN(Cc3ccc(-n4c(-c5cccnc5N)nc5ccc([C@@H]6CCOC6)nc54)cc3)CC2)n1 (single isomer, unassigned) [Example 506] | < 15 |  |
| N#Cc1nccc(NC2CCN(Cc3ccc(-n4c(-c5cccnc5N)nc5ccc([C@H]6CCOC6)nc54)cc3)CC2)n1 (single isomer, unassigned) [Example 507] | < 15 |  |
| N#Cc1ccc(OC2CCN(Cc3ccc(-n4c(-c5cccnc5N)nc5cccnc54)cc3)CC2)nc1 [Example 1, 6-((1-(4-(2-(2-Aminopyridin-3-yl)-3H-imidazo[4,5-b]pyridin-3-yl)benzyl)piperidin-4-yl)oxy)nicotinonitrile] |  | 600 to 10000 |
| N#Cc1ccc(OC2CCN(Cc3ccc(-n4c(-c5cccnc5N)nc5ccc(-c6ccccc6)nc54)cc3)CC2)nc1 [Example 2, 6-((1-(4-(2-(2-Aminopyridin-3-yl)-5-phenyl-3H-imidazo[4,5-b]pyridin-3-yl)benzyl)piperidin-4-yl)oxy)nicotinonitrile] |  | 60 to 600 |
| N#Cc1ccc(OC2CCN(Cc3ccc(-n4c(-c5cccnc5N)nc5cc(-c6ccccc6)cnc54)cc3)CC2)nc1 [Example 3, 6-((1-(4-(2-(2-aminopyridin-3-yl)-6-phenyl-3H-imidazo[4,5-b]pyridin-3-yl)benzyl)piperidin-4-yl)oxy)nicotinonitrile] |  | 600 to 10000 |
| N#Cc1cccc(OC2CCN(Cc3ccc(-n4c(-c5cccnc5N)nc5cccnc54)cc3)CC2)n1 [Example 4, 6-((1-(4-(2-(2-Aminopyridin-3-yl)-3H-imidazo[4,5-b]pyridin-3-yl)benzyl)piperidin-4-yl)oxy)picolinonitrile] |  | 600 to 10000 |
| N#Cc1ccnc(OC2CCN(Cc3ccc(-n4c(-c5cccnc5N)nc5cccnc54)cc3)CC2)c1 [Example 5, 2-((1-(4-(2-(2-aminopyridin-3-yl)-3H-imidazo[4,5-b]pyridin-3-yl)benzyl)piperidin-4-yl)oxy)isonicotinonitrile] |  | 600 to 10000 |
| N#Cc1cccnc1OC1CCN(Cc2ccc(-n3c(-c4cccnc4N)nc4cccnc43)cc2)CC1 [Example 6, 2-((1-(4-(2-(2-aminopyridin-3-yl)-3H-imidazo[4,5-b]pyridin-3-yl)benzyl)piperidin-4-yl)oxy)nicotinonitrile] |  | 600 to 10000 |
| N#Cc1cccc(OC2CCN(Cc3ccc(-n4c(-c5cccnc5N)nc5ccc(-c6ccccc6)nc54)cc3)CC2)n1 [Example 7, 6-((1-(4-(2-(2-Aminopyridin-3-yl)-5-phenyl-3H-imidazo[4,5-b]pyridin-3-yl)benzyl)piperidin-4-yl)oxy)picolinonitrile] |  | 60 to 600 |
| N#Cc1ccnc(OC2CCN(Cc3ccc(-n4c(-c5cccnc5N)nc5ccc(-c6ccccc6)nc54)cc3)CC2)c1 [Example 8, 2-((1-(4-(2-(2-Aminopyridin-3-yl)-5-phenyl-3H-imidazo[4,5-b]pyridin-3-yl)benzyl)piperidin-4-yl)oxy)isonicotinonitrile] |  | 600 to 10000 |
| N#Cc1cccnc1OC1CCN(Cc2ccc(-n3c(-c4cccnc4N)nc4ccc(-c5ccccc5)nc43)cc2)CC1 [Example 9, 2-((1-(4-(2-(2-Aminopyridin-3-yl)-5-phenyl-3H-imidazo[4,5-b]pyridin-3-yl)benzyl)piperidin-4-yl)oxy)nicotinonitrile] |  | 60 to 600 |
| N#Cc1cccc(OC2CCN(Cc3ccc(-n4c(-c5cccnc5N)nc5cc(-c6ccccc6)cnc54)cc3)CC2)n1 [Example 10, 6-((1-(4-(2-(2-Aminopyridin-3-yl)-6-phenyl-3H-imidazo[4,5-b]pyridin-3-yl)benzyl)piperidin-4-yl)oxy)picolinonitrile] |  | 600 to 10000 |
| N#Cc1ccnc(OC2CCN(Cc3ccc(-n4c(-c5cccnc5N)nc5cc(-c6ccccc6)cnc54)cc3)CC2)c1 [Example 11, 2-((1-(4-(2-(2-Aminopyridin-3-yl)-6-phenyl-3H-imidazo[4,5-b]pyridin-3-yl)benzyl)piperidin-4-yl)oxy)isonicotinonitrile] |  | 600 to 10000 |
| N#Cc1cccnc1OC1CCN(Cc2ccc(-n3c(-c4cccnc4N)nc4cc(-c5ccccc5)cnc43)cc2)CC1 [Example 12, 2-((1-(4-(2-(2-Aminopyridin-3-yl)-6-phenyl-3H-imidazo[4,5-b]pyridin-3-yl)benzyl)piperidin-4-yl)oxy)nicotinonitrile] |  | 600 to 10000 |
| N#Cc1cc(N2CCN(Cc3ccc(-n4c(-c5cccnc5N)nc5cccnc54)cc3)CC2)ccn1 [Example 13, 4-(4-(4-(2-(2-Aminopyridin-3-yl)-3H-imidazo[4,5-b]pyridin-3-yl)benzyl)piperazin-1-yl)picolinonitrile] |  | 600 to 10000 |
| N#Cc1ccc(N2CCN(Cc3ccc(-n4c(-c5cccnc5N)nc5cccnc54)cc3)CC2)cn1 [Example 14, 5-(4-(4-(2-(2-Aminopyridin-3-yl)-3H-imidazo[4,5-b]pyridin-3-yl)benzyl)piperazin-1-yl)picolinonitrile] |  | 600 to 10000 |
| N#Cc1cccc(N2CCN(Cc3ccc(-n4c(-c5cccnc5N)nc5cccnc54)cc3)CC2)n1 [Example 15, 6-(4-(4-(2-(2-Aminopyridin-3-yl)-3H-imidazo[4,5-b]pyridin-3-yl)benzyl)piperazin-1-yl)picolinonitrile] |  | 600 to 10000 |
| N#Cc1cncc(N2CCN(Cc3ccc(-n4c(-c5cccnc5N)nc5cccnc54)cc3)CC2)c1 [Example 16, 5-(4-(4-(2-(2-Aminopyridin-3-yl)-3H-imidazo[4,5-b]pyridin-3-yl)benzyl)piperazin-1-yl)nicotinonitrile] |  | 600 to 10000 |
| N#Cc1ccnc(N2CCN(Cc3ccc(-n4c(-c5cccnc5N)nc5cccnc54)cc3)CC2)c1 [Example 17, 2-(4-(4-(2-(2-Aminopyridin-3-yl)-3H-imidazo[4,5-b]pyridin-3-yl)benzyl)piperazin-1-yl)isonicotinonitrile] |  | 600 to 10000 |
| N#Cc1nccc(N2CCN(Cc3ccc(-n4c(-c5cccnc5N)nc5cccnc54)cc3)CC2)n1 [Example 18, 4-(4-(4-(2-(2-Aminopyridin-3-yl)-3H-imidazo[4,5-b]pyridin-3-yl)benzyl)piperazin-1-yl)pyrimidine-2-carbonitrile] |  | 60 to 600 |
| N#Cc1cncc(N2CCN(Cc3ccc(-n4c(-c5cccnc5N)nc5cccnc54)cc3)CC2)n1 [Example 19, 6-(4-(4-(2-(2-Aminopyridin-3-yl)-3H-imidazo[4,5-b]pyridin-3-yl)benzyl)piperazin-1-yl)pyrazine-2-carbonitrile] |  | 600 to 10000 |
| N#Cc1ccnc(N2CCN(Cc3ccc(-n4c(-c5cccnc5N)nc5cccnc54)cc3)CC2)n1 [Example 20, 2-(4-(4-(2-(2-aminopyridin-3-yl)-3H-imidazo[4,5-b]pyridin-3-yl)benzyl)piperazin-1-yl)pyrimidine-4-carbonitrile] |  | 600 to 10000 |
| N#Cc1cc(N2CCN(Cc3ccc(-n4c(-c5cccnc5N)nc5cccnc54)cc3)CC2)ncn1 [Example 21, 6-(4-(4-(2-(2-Aminopyridin-3-yl)-3H-imidazo[4,5-b]pyridin-3-yl)benzyl)piperazin-1-yl)pyrimidine-4-carbonitrile] |  | 60 to 600 |
| N#Cc1cnnc(N2CCN(Cc3ccc(-n4c(-c5cccnc5N)nc5cccnc54)cc3)CC2)c1 [Example 22, 6-(4-(4-(2-(2-Aminopyridin-3-yl)-3H-imidazo[4,5-b]pyridin-3-yl)benzyl)piperazin-1-yl)pyridazine-4-carbonitrile] |  | 600 to 10000 |
| N#Cc1cc(C(=O)NC2CCN(Cc3ccc(-n4c(-c5cccnc5N)nc5cccnc54)cc3)CC2)ccn1 [Example 23, N-(1-(4-(2-(2-aminopyridin-3-yl)-3H-imidazo[4,5-b]pyridin-3-yl)benzyl)piperidin-4-yl)-2-cyanoisonicotinamide] |  | 600 to 10000 |
| N#Cc1ccc(C(=O)NC2CCN(Cc3ccc(-n4c(-c5cccnc5N)nc5cccnc54)cc3)CC2)cn1 [Example 24, N-(1-(4-(2-(2-Aminopyridin-3-yl)-3H-imidazo[4,5-b]pyridin-3-yl)benzyl)piperidin-4-yl)-6-cyanonicotinamide] |  | 600 to 10000 |
| N#Cc1ccc(C(=O)NC2CCN(Cc3ccc(-n4c(-c5cccnc5N)nc5cccnc54)cc3)CC2)nc1 [Example 25, N-(1-(4-(2-(2-Aminopyridin-3-yl)-3H-imidazo[4,5-b]pyridin-3-yl)benzyl)piperidin-4-yl)-5-cyanopicolinamide] |  | 600 to 10000 |
| N#Cc1cncc(C(=O)NC2CCN(Cc3ccc(-n4c(-c5cccnc5N)nc5cccnc54)cc3)CC2)c1 [Example 26, N-(1-(4-(2-(2-aminopyridin-3-yl)-3H-imidazo[4,5-b]pyridin-3-yl)benzyl)piperidin-4-yl)-5-cyanonicotinamide] |  | 600 to 10000 |
| N#Cc1ncccc1C(=O)NC1CCN(Cc2ccc(-n3c(-c4cccnc4N)nc4cccnc43)cc2)CC1 [Example 27, N-(1-(4-(2-(2-Aminopyridin-3-yl)-3H-imidazo[4,5-b]pyridin-3-yl)benzyl)piperidin-4-yl)-2-cyanonicotinamide] |  | 600 to 10000 |
